Measured values published in patent US12459922B2 (Gilead Sciences, Inc., priority 2022, dated 2025).

Tested on: endogenous cellular STAT1 (phosphorylated at Tyr701) in NCI-H1373 cells
Assay: Phospho-STAT1 (Tyr701) LANCE Ultra TR-FRET Detection Assay
Format: cell-based
Conditions: Homo sapiens, NCI-H1373, 48 h, phospho-STAT1 (Tyr701) induction, read-out: NH1373 pSTAT1 EC50

`C[C@@H](CCCn1ccc2cc(-c3ccc(Cl)c(N)n3)c(F)cc2c1=O)Nc1cn[nH]c(=O)c1C(F)(F)F` [Example 293, (S)-6-(6-amino-5-chloropyridin-2-yl)-7-fluoro-2-(4-((6-oxo-5-(trifluoromethyl)-1,6-dihydropyridazin-4-yl)amino)pentyl)isoquinolin-1(2H)-one] and `[2H]C([2H])([2H])Oc1cnc(-c2cc3ccn(CCC[C@H](C)Nc4cn[nH]c(=O)c4C(F)(F)F)c(=O)c3cc2F)nc1N` [Example 196, 6-[4-amino-5-(trideuteriomethoxy)pyrimidin-2-yl]-7-fluoro-2-[(4S)-4-[[6-oxo-5-(trifluoromethyl)-1H-pyridazin-4-yl]amino]pentyl]isoquinolin-1-one] are within 1.5-fold of each other in EC50: 5.28 nM for the first, 6.13 nM for the second.

Going from `C[C@@H](CCCn1ccc2cc(-c3ncc(-c4ccccc4F)cn3)c(F)cc2c1=O)Nc1cn[nH]c(=O)c1C(F)(F)F` [Example 336, (S)-7-fluoro-6-(5-(2-fluorophenyl)pyrimidin-2-yl)-2-(4-((6-oxo-5-(trifluoromethyl)-1,6-dihydropyridazin-4-yl)amino)pentyl)isoquinolin-1(2H)-one] to `C[C@@H](CCCn1ccc2cc(-c3ncc(N(C)C)cn3)c(F)cc2c1=O)Nc1cn[nH]c(=O)c1C(F)(F)F` [Example 92, (S)-6-(5-(dimethylamino)pyrimidin-2-yl)-7-fluoro-2-(4-((6-oxo-5-(trifluoromethyl)-1,6-dihydropyridazin-4-yl)amino)pentyl)isoquinolin-1(2H)-one], the EC50 falls from 95.1 nM to 11.1 nM (8.6-fold).

`C[C@@H](CCCn1ccc2cc(-c3ncc(C(F)(F)F)c(N4CC(C#N)C4)n3)c(F)cc2c1=O)Nc1cn[nH]c(=O)c1C(F)(F)F` [Example 119, (S)-1-(2-(7-fluoro-1-oxo-2-(4-((6-oxo-5-(trifluoromethyl)-1,6-dihydropyridazin-4-yl)amino)pentyl)-1,2-dihydroisoquinolin-6-yl)-5-(trifluoromethyl)pyrimidin-4-yl)azetidine-3-carbonitrile] and `Nc1nc(-c2cc3ccn(CCC[C@@H](Nc4cn[nH]c(=O)c4C(F)(F)F)C4CC4)c(=O)c3cc2F)ncc1C(F)(F)F` [Example 144, 6-[4-amino-5-(trifluoromethyl)pyrimidin-2-yl]-2-[(4R)-4-cyclopropyl-4-[[6-oxo-5-(trifluoromethyl)-1H-pyridazin-4-yl]amino]butyl]-7-fluoro-isoquinolin-1-one] are within 1.5-fold of each other in EC50: 3.36 nM for the first, 3.55 nM for the second.

Going from `Cc1cnc(-c2cc3ncn(CCC[C@H](C)Nc4cn[nH]c(=O)c4C(F)(F)F)c(=O)c3cc2F)nc1` [Example 95, (S)-6-fluoro-7-(5-methylpyrimidin-2-yl)-3-(4-((6-oxo-5-(trifluoromethyl)-1,6-dihydropyridazin-4-yl)amino)pentyl)quinazolin-4(3H)-one] to `Cc1cnc(N)nc1-c1cc2ncn(CCC[C@H](C)Nc3cn[nH]c(=O)c3C(F)(F)F)c(=O)c2cc1F` [Example 79, (S)-7-(2-amino-5-methylpyrimidin-4-yl)-6-fluoro-3-(4-((6-oxo-5-(trifluoromethyl)-1,6-dihydropyridazin-4-yl)amino)pentyl)quinazolin-4(3H)-one], the EC50 rises from 97.1 nM to 1500 nM (15-fold). The first is the more potent here.

Going from `Nc1nc(-c2cc3ccn(C[C@@H]4CCC[C@H](Nc5cn[nH]c(=O)c5C(F)(F)F)C4)c(=O)c3cc2F)cnc1C(F)F` [Example 264, 6-(6-amino-5-(difluoromethyl)pyrazin-2-yl)-7-fluoro-2-(((1R,3S)-3-((6-oxo-5-(trifluoromethyl)-1,6-dihydropyridazin-4-yl)amino)cyclohexyl)methyl)isoquinolin-1(2H)-one] to `Nc1nc(-c2cc3ccn(C[C@@H]4CCC[C@H](Nc5cn[nH]c(=O)c5C(F)(F)F)C4)c(=O)c3cc2F)ncc1OC(F)F` [Example 260, 6-(4-amino-5-(difluoromethoxy)pyrimidin-2-yl)-7-fluoro-2-(((1R,3S)-3-((6-oxo-5-(trifluoromethyl)-1,6-dihydropyridazin-4-yl)amino)cyclohexyl)methyl)isoquinolin-1(2H)-one], the EC50 falls from 76.1 nM to 12.7 nM (6-fold). The second is the more potent here.

`O=c1[nH]ncc(N[C@H](CCCn2ccc3cc(-c4cnc(OC(F)F)cn4)c(F)cc3c2=O)COC(F)F)c1C(F)(F)F` [Example 371, (R)-2-(5-(difluoromethoxy)-4-((6-oxo-5-(trifluoromethyl)-1,6-dihydropyridazin-4-yl)amino)pentyl)-6-(5-(difluoromethoxy)pyrazin-2-yl)-7-fluoroisoquinolin-1(2H)-one] and `O=c1[nH]ncc(N[C@H](CCCn2cnc3cc(-c4cnc(C(F)F)cn4)c(F)cc3c2=O)COC(F)F)c1C(F)(F)F` [Example 372, (R)-3-(5-(difluoromethoxy)-4-((6-oxo-5-(trifluoromethyl)-1,6-dihydropyridazin-4-yl)amino)pentyl)-7-(5-(difluoromethyl)pyrazin-2-yl)-6-fluoroquinazolin-4(3H)-one] are within 1.5-fold of each other in EC50: 6.78 nM for the first, 7.13 nM for the second.

Going from `O=c1[nH]ncc(N[C@H]2CCC[C@@H](Cn3ccc4cc(-c5nccc(C(F)(F)F)n5)c(F)cc4c3=O)C2)c1C(F)(F)F` [Example 272, 7-fluoro-2-(((1R,3S)-3-((6-oxo-5-(trifluoromethyl)-1,6-dihydropyridazin-4-yl)amino)cyclohexyl)methyl)-6-(4-(trifluoromethyl)pyrimidin-2-yl)isoquinolin-1(2H)-one] to `Nc1nc(-c2cc3ccn(C[C@@H]4CC[C@H](Nc5cn[nH]c(=O)c5C(F)(F)F)C4)c(=O)c3cc2F)ncc1C(F)(F)F` [Example 444, 6-(4-amino-5-(trifluoromethyl)pyrimidin-2-yl)-7-fluoro-2-(((1R,3S)-3-((6-oxo-5-(trifluoromethyl)-1,6-dihydropyridazin-4-yl)amino)cyclopentyl)methyl)isoquinolin-1(2H)-one], the EC50 falls from 10000 nM to 25.1 nM (400-fold). The second is the more potent here.

First: COc1cnc(-c2cc3ncn(CCC[C@H](C)Nc4cn[nH]c(=O)c4C(F)(F)F)c(=O)c3cc2F)nc1N1CC(O)C1 [Example 208]
Second: N#Cc1cnc(-c2cc3ccn(CCC[C@@H](Nc4cn[nH]c(=O)c4C(F)(F)F)C4CC4)c(=O)c3cc2F)nc1N [Example 145, 4-amino-2-[2-[(4R)-4-cyclopropyl-4-[[6-oxo-5-(trifluoromethyl)-1H-pyridazin-4-yl]amino]butyl]-7-fluoro-1-oxoisoquinolin-6-yl]pyrimidine-5-carbonitrile]
The EC50 of the first is 15-fold higher: 206 nM for the first, 14.1 nM for the second.

`Nc1nc(-c2ccc3c(=O)n(CCC[C@H](COC(F)F)Nc4cn[nH]c(=O)c4C(F)(F)F)ccc3n2)ccc1C(F)(F)F` [Example 405, (R)-2-(6-amino-5-(trifluoromethyl)pyridin-2-yl)-6-(5-(difluoromethoxy)-4-((6-oxo-5-(trifluoromethyl)-1,6-dihydropyridazin-4-yl)amino)pentyl)-1,6-naphthyridin-5(6H)-one] and `CC[C@@H](CCCn1ccc2cc(-c3ncc(C(F)(F)F)c(N)n3)c(F)c(F)c2c1=O)Nc1cn[nH]c(=O)c1C(F)(F)F` [Example 348, (S)-6-(4-amino-5-(trifluoromethyl)pyrimidin-2-yl)-7,8-difluoro-2-(4-((6-oxo-5-(trifluoromethyl)-1,6-dihydropyridazin-4-yl)amino)hexyl)isoquinolin-1(2H)-one] are within 1.5-fold of each other in EC50: 9.67 nM for the first, 6.47 nM for the second.

Compared with `O=c1[nH]ncc(N2CC[C@@H]2CCCn2cnc3cc(-c4ncc(C(F)(F)F)cn4)c(F)cc3c2=O)c1C(F)(F)F` (single isomer, unassigned) [Example 151], `O=c1[nH]ncc(N2CC[C@H]2CCCn2cnc3cc(-c4ncc(C(F)(F)F)cn4)c(F)cc3c2=O)c1C(F)(F)F` (single isomer, unassigned) [Example 152] is 120-fold lower in EC50: 58.7 nM for the first, 0.508 nM for the second. The second is the more potent here.

Compared with `O=c1[nH]ncc(N[C@@H](CO)CCCn2ccc3cc(-c4ncc(C(F)F)cn4)c(F)cc3c2=O)c1C(F)(F)F` [Example 165], `CC(C)(O)[C@@H](CCCn1ccc2cc(-c3ncc(C(F)(F)F)cn3)c(F)cc2c1=O)Nc1cn[nH]c(=O)c1C(F)(F)F` [Example 73, 7-fluoro-2-[(4R)-5-hydroxy-5-methyl-4-[[6-oxo-5-(trifluoromethyl)-1H-pyridazin-4-yl]amino]hexyl]-6-[5-(trifluoromethyl)pyrimidin-2-yl]isoquinolin-1-one] is 4.6-fold higher in EC50: 159 nM for the first, 734 nM for the second.

Compared with `C[C@@H](Nc1cn[nH]c(=O)c1C(F)(F)F)/C(F)=C/Cn1ccc2cc(-c3ncc(C(F)(F)F)cn3)c(F)c(F)c2c1=O` [Example 131, (R,Z)-7,8-difluoro-2-(3-fluoro-4-((6-oxo-5-(trifluoromethyl)-1,6-dihydropyridazin-4-yl)amino)pent-2-en-1-yl)-6-(5-(trifluoromethyl)pyrimidin-2-yl)isoquinolin-1(2H)-one], `C[C@@H](CCCn1ccc2cc(-c3ccc(C(F)F)cn3)c(F)c(F)c2c1=O)Nc1cn[nH]c(=O)c1C(F)(F)F` [Example 51, (S)-6-(5-(difluoromethyl)pyridin-2-yl)-7,8-difluoro-2-(4-((6-oxo-5-(trifluoromethyl)-1,6-dihydropyridazin-4-yl)amino)pentyl)isoquinolin-1(2H)-one] is 3.5-fold lower in EC50: 158 nM for the first, 44.9 nM for the second. The second is the more potent here.

Compared with `O=c1[nH]ncc(N[C@H](CCCn2cnc3cc(C4=CCCCO4)c(F)cc3c2=O)COC(F)F)c1C(F)(F)F` [Example 398, (R)-3-(5-(difluoromethoxy)-4-((6-oxo-5-(trifluoromethyl)-1,6-dihydropyridazin-4-yl)amino)pentyl)-7-(3,4-dihydro-2H-pyran-6-yl)-6-fluoroquinazolin-4(3H)-one], `Nc1nc(-c2cc3ccn(CC[C@H]4CCCC[C@@H]4Nc4cn[nH]c(=O)c4C(F)(F)F)c(=O)c3cc2F)ncc1C(F)(F)F` [Example 451, 6-[4-amino-5-(trifluoromethyl)pyrimidin-2-yl]-7-fluoro-2-[2-[(1R,2S)-2-[[6-oxo-5-(trifluoromethyl)-1H-pyridazin-4-yl]amino]cyclohexyl]ethyl]isoquinolin-1-one] is 89-fold lower in EC50: 424 nM for the first, 4.76 nM for the second. The second is the more potent here.

`O=c1[nH]ncc(N2CC3(CC3)C[C@H]2CCCn2ccc3cc(-c4ncc(C(F)(F)F)cn4)c(F)cc3c2=O)c1C(F)(F)F` [Example 142, 7-fluoro-2-[3-[(6R)-5-[6-oxo-5-(trifluoromethyl)-1H-pyridazin-4-yl]-5-azaspiro[2.4]heptan-6-yl]propyl]-6-[5-(trifluoromethyl)pyrimidin-2-yl]isoquinolin-1-one] showed an EC50 of 38.6 nM.
